The source of these data is ChEMBL document CHEMBL5518159, “Thiazole-based analogues as potential antibacterial agents against methicillin-resistant Staphylococcus aureus (MRSA) and their SAR elucidation” (Eur J Med Chem, 2023).

Converted amounts (≈) assume the structure as drawn.

Test [1] relates to Staphylococcus aureus. Description: Antibacterial activity against vancomycin-resistant Staphylococcus aureus assessed as bacterial growth inhibition incubated for 18 to 24 hrs by CLSI-based microdilution method. Type of test: functional. The note with it: time 18-24 hrs. In general terms: Dilution methods test growth across graded concentrations, often in twofold steps.
The test system of test [2] is Staphylococcus aureus. Description: Antibacterial activity against Methicillin-sensitive Staphylococcus aureus ATCC 25923 assessed as reduction in microbial growth by CLSI based broth microdilution method. Type of test: functional.
The test system of test [3] is Staphylococcus aureus. As to the kind of experiment: Antibacterial activity against Methicillin-sensitive Staphylococcus aureus ATCC 25923 assessed as reduction in bacterial growth incubated for 24 hrs by CLSI based broth microdilution method. The format is functional.
In test [4] the test system is Staphylococcus aureus. Description: Antibacterial activity against Methicillin-resistant Staphylococcus aureus ATCC 43300 assessed as reduction in bacterial growth measured for 24 hrs by CLSI based broth microdilution method. The format is functional.
Test [5] relates to Staphylococcus aureus. As to the kind of experiment: Antibacterial activity against methicillin-resistant Staphylococcus aureus assessed as reduction in microbial growth by CLSI based broth microdilution method. Type of test: functional.
Test [6] has as its system Staphylococcus aureus. As to the kind of experiment: Antibacterial activity against methicillin-resistant Staphylococcus aureus assessed as inhibition of bacterial growth measured after 24 hrs by broth micro-dilution method. Type of test: functional.
The subject of test [7] is Staphylococcus aureus. As to the kind of experiment: Antibacterial activity against Methicillin-resistant Staphylococcus aureus AUMC 261 assessed as bacterial growth inhibition incubated for 24 hrs by broth microdilution analysis. Type of test: functional.
Test [8] concerns Escherichia coli. As to the kind of experiment: Antibacterial activity against Escherichia coli ATCC 35210 assessed as reduction in bacterial growth by broth microdilution method. Type of test: functional.
The test system of another test is Pseudomonas aeruginosa. Description: Antibacterial activity against Pseudomonas aeruginosa assessed as reduction in bacterial growth by broth microdilution method. The format is functional.
For test [9], the system named is Staphylococcus aureus. As to the kind of experiment: Antibacterial activity against Methicillin-sensitive Staphylococcus aureus ATCC 6538 assessed as reduction in microbial growth. Type of test: functional.
The test system of test [10] is Staphylococcus aureus. Description: Antibacterial activity against methicillin-resistant Staphylococcus aureus ATCC 43300 assessed as bacterial growth inhibition incubated for 24 hrs by broth dilution method. The format is functional.
Test [11] relates to Staphylococcus aureus. As to the kind of experiment: Antibacterial activity against methicillin-resistant Staphylococcus aureus ATCC 43300 assessed as reduction in bacterial growth by CLSI protocol based broth microdilution method. The format is functional.
Test [12] concerns Staphylococcus aureus. Description: Antibacterial activity against Methicillin-resistant Staphylococcus aureus assessed as reduction of microbial growth by Muller Hinton broth based dilution assay. Type of test: functional.
Test [13] has as its system Escherichia coli. Description: Antibiofilm activity against Escherichia coli ATCC 25922 assessed as reduction in biofilm formation at 50 uM incubated for 24 hrs by crystal violet staining based analysis relative to control. Type of test: functional. Also on record: scale not given: the % may be the effect or the level left.
Test [14] relates to Staphylococcus aureus. Description: Antibacterial activity against Methicillin-resistant Staphylococcus aureus […] assessed as reduction in microbial growth incubated for 18 to 24 hrs by broth micro-dilution method. Type of test: functional. The note with it: time 18-24 hrs.
Test [15] has as its system Escherichia coli. As to the kind of experiment: Antibacterial activity against Escherichia coli ATCC 25922 assessed as reduction in bacterial growth incubated for 18 to 24 hrs by broth microdilution method. The note with it: time 18-24 hrs. The format is functional.
The test system of test [16] is Escherichia coli. Description: Antibacterial activity against Escherichia coli ATCC 35210 assessed as reduction in bacterial growth measured for 24 hrs by broth micro-dilution method. The format is functional.
The subject of test [17] is Staphylococcus aureus. As to the kind of experiment: Antibacterial activity against methicillin-resistant Staphylococcus aureus ATCC 33592 assessed as reduction in bacterial growth. Type of test: functional.
Test [18] concerns Escherichia coli. As to the kind of experiment: Antibacterial activity against Escherichia coli ATCC 25922 assessed as reduction in bacterial growth by broth microdilution method. Type of test: functional.
Test [19] deals with Staphylococcus aureus. As to the kind of experiment: Antibacterial activity against Methicillin-resistant Staphylococcus aureus […] assessed as reduction in microbial growth. The format is functional.
Test [20] deals with Staphylococcus aureus. Description: Antibacterial activity against methicillin-resistant Staphylococcus aureus ATCC 33592 assessed as reduction in microbial growth incubated for 16 to 20 hrs by CLSI based two-fold serial dilution method. The note with it: time 16-20 hrs. The format is functional.
The subject of test [21] is Staphylococcus aureus. Description: Antimicrobial activity against Methicillin-resistant Staphylococcus aureus ATCC 43300 assessed as bacterial growth inhibition incubated for 18 hrs by broth micro-dilution method. The format is functional.
Test [22] has as its system Escherichia coli. As to the kind of experiment: Antibacterial activity against Escherichia coli ATCC 35210 assessed as reduction in microbial growth. Type of test: functional.
For test [23], the system named is Staphylococcus aureus. Description: Antimicrobial activity against methicillin-resistant Staphylococcus aureus assessed as inhibition of microbial growth incubated for 16 hrs by microdilution method. Type of test: functional, organism-based.
Test [24] deals with Staphylococcus aureus. As to the kind of experiment: Antibacterial activity against Methicillin-sensitive Staphylococcus aureus ATCC 43300 assessed as reduction in microbial growth by CLSI based broth microdilution method. Type of test: functional.

As for `O=C(O)CCN(c1ccc(Nc2ccccc2)cc1)c1nc(-c2ccc(F)cc2)cs1`, in the test on Staphylococcus aureus [1], the MIC was determined as 1 µg/mL (≈ 2.31 µM).

On to `CC(=O)c1sc(-c2cccnc2)nc1C`, for which, in the test on Staphylococcus aureus [2], the MIC90 was determined as 4 µg/mL. Besides, the values for the MIC50 with Staphylococcus aureus [3] and in the test with Staphylococcus aureus [4] were 2 µg/mL (≈ 9.16 µM) and 4 µg/mL (≈ 18.3 µM), respectively. `O=C(/C(=C/c1ccccc1Cl)n1cnc2cc(Cl)ccc2c1=O)c1nccs1`: the minimal inhibitory concentration (MIC) in the test on Staphylococcus aureus [5] turned out to be 2 µg/mL. Turning to `COc1ccc(/C=c2/s/c(=C/c3ncc(C)s3)[nH]c2=O)cc1`, in the test on Staphylococcus aureus [6], the minimal inhibitory concentration (MIC) stood at 40 µg/mL (≈ 121 µM). With `O=C(O)c1cn(C2CC2)c2cc(N3CCN(C(=O)CN4C(=O)S/C(=C\c5ccc([N+](=O)[O-])cc5)C4=O)CC3)c(F)cc2c1=O`, the minimal inhibitory concentration (MIC) in the test with Staphylococcus aureus [7] is 2.88 µg/mL (≈ 4.63 µM). `Cc1cnc(/C=c2\[nH]c(=O)/c(=C\c3ccc(Br)cc3)s2)s1`: in the test on Staphylococcus aureus [6], the minimum inhibitory concentration (MIC) was determined as 40 µg/mL (≈ 105 µM). For the compound `COc1cc(CCN)c(-c2csc(-c3ccc(O)cc3)n2)cc1OC`, the MIC with Escherichia coli [8] was less than 230 µg/mL; in the test with Pseudomonas aeruginosa, less than 230 µg/mL; in the test with Staphylococcus aureus [9], 700 µg/mL.

On to `O=C1CSC(c2ccc(Cl)cc2Cl)N1c1nc2ccc(OC(F)(F)F)cc2s1` (stereo unspecified), for which the minimum bactericidal concentration (MBC) in the test on Staphylococcus aureus [10] worked out at 120 µg/mL (≈ 258 µM). Moreover, the MIC in the test on Staphylococcus aureus [11] stood at 250 µg/mL (≈ 537 µM).

With `O=C(/C(=C/c1ccc(-c2ccc(Cl)cc2Cl)cc1)Oc1ccc2c(CN(CCO)CCO)cc(=O)oc2c1)c1nccs1`, in the test on Staphylococcus aureus [12], the minimal inhibitory concentration (MIC) is 4 µg/mL. On to `O=C(O)CCN(c1ccc(Nc2ccccc2)cc1)c1nc(-c2ccc(Cl)cc2)cs1`, for which, in the test with Staphylococcus aureus [1], the MIC amounted to 1 µg/mL (≈ 2.22 µM). For `CCOC1=NC(=N/N=C2\C(=O)Nc3ccc(Br)cc32)/S/C1=N/Nc1ccccc1`, in the test with Escherichia coli [13], the Activity was 90%. In addition, the MIC in the test with Staphylococcus aureus [14] was 8 µg/mL; in the test on Escherichia coli [15], 4 µg/mL (≈ 8.49 µM).

`Cc1[nH]c2ccc(Cl)cc2c1-c1csc(N)n1`: the minimal inhibitory concentration (MIC) with Escherichia coli [16] was determined as 60 µg/mL (≈ 227 µM); with Staphylococcus aureus [17], 100 µg/mL (≈ 379 µM); with Escherichia coli [18] it was 60 µg/mL (≈ 227 µM); in the test on Staphylococcus aureus [19], 230 µg/mL. For `O=C1CSC(c2c(F)cccc2Cl)N1c1nc2ccc(OC(F)(F)F)cc2s1` (stereo unspecified), the MBC in the test on Staphylococcus aureus [10] turned out to be 120 µg/mL (≈ 267 µM). Further, in the test on Staphylococcus aureus [11], the minimal inhibitory concentration (MIC) is 250 µg/mL (≈ 557 µM).

Regarding `CCn1cc(-c2csc(N)n2)c(=O)c2cc(F)c(N3CCN(Cc4ccc(Cl)c(Cl)c4)CC3)cc21`, in the test on Staphylococcus aureus [20], the MIC came out at 8 µg/mL. As to `O=C(O)c1cn(C2CC2)c2cc(N3CCNCC3)c(F)cc2c1=O` [CIPROFLOXACIN], the MIC came to 0.2 µg/mL (≈ 0.604 µM) with Staphylococcus aureus [7] and 32 µg/mL (≈ 96.6 µM) in the test on Staphylococcus aureus [21]. As for `CCc1nc(N2CCN(CC(=O)Nc3nccs3)CC2)c(C#N)c2c1COC(C)(C)C2`, the MIC with Escherichia coli [22] came to 230 µg/mL.

For the compound `O=C1CSC(c2c(F)cccc2F)N1c1nc2ccc(OC(F)(F)F)cc2s1` (stereo unspecified), in the test on Staphylococcus aureus [10], the MBC is 120 µg/mL (≈ 278 µM). In addition, the minimum inhibitory concentration (MIC) in the test on Staphylococcus aureus [11] was 250 µg/mL (≈ 578 µM). For the compound `CCn1cc(-c2csc(N)n2)c(=O)c2cc(F)c(N3CCN(Cc4ccc(Cl)cc4)CC3)cc21`, the minimum inhibitory concentration (MIC) in the test on Staphylococcus aureus [20] amounted to 8 µg/mL. Consider `CO/N=C(/COc1ccc2c(C)cc(=O)oc2c1)c1nccs1`, for which the half-inhibitory concentration (IC50) in the test on Staphylococcus aureus [23] is 1 µg/mL.

For `N#Cc1c(N2CCN(CC(=O)Nc3nccs3)CC2)nc(-c2ccco2)c2c1CCC2`, the MIC with Escherichia coli [22] came to 230 µg/mL. `O=C(O)c1cn(C2CC2)c2cc(N3CCN(C(=O)CN4C(=O)S/C(=C\c5ccccc5)C4=O)CC3)c(F)cc2c1=O`: the MIC in the test on Staphylococcus aureus [7] is 2.88 µg/mL (≈ 4.99 µM). As for `Cc1cnc(/C=c2\[nH]c(=O)/c(=C\c3cccc(F)c3)s2)s1`, in the test on Staphylococcus aureus [6], the MIC is 40 µg/mL (≈ 126 µM). On to `O=C1CSC(c2c(Cl)cccc2Cl)N1c1nc2ccc(OC(F)(F)F)cc2s1` (stereo unspecified), for which, in the test with Staphylococcus aureus [10], the minimum bactericidal concentration (MBC) amounted to 120 µg/mL (≈ 258 µM). In addition, in the test with Staphylococcus aureus [11], the MIC is 250 µg/mL (≈ 537 µM).

`N#C/C(C(=O)NCc1ccco1)=C1/SC(Cc2ccc(Cl)cc2)C(=O)N1c1ccccc1` (stereo unspecified): in the test with Staphylococcus aureus [21], the MIC came to 4 µg/mL (≈ 8.62 µM).

In the case of `CN[C@H](CC(C)C)C(=O)N[C@H]1C(=O)N[C@@H](CC(N)=O)C(=O)N[C@H]2C(=O)N[C@H]3C(=O)N[C@H](C(=O)N[C@H](C(=O)O)c4cc(O)cc(O)c4-c4cc3ccc4O)[C@H](O)c3ccc(c(Cl)c3)Oc3cc2cc(c3O[C@@H]2O[C@H](CO)[C@@H](O)[C@H](O)[C@H]2O[C@H]2C[C@](C)(N)[C@H](O)[C@H](C)O2)Oc2ccc(cc2Cl)[C@H]1O` [VANCOMYCIN], the MIC in the test with Staphylococcus aureus [6] is 1.95 µg/mL (≈ 1.35 µM). Besides, the MIC90 in the test on Staphylococcus aureus [24] is 16 µg/mL. In addition, the MIC50 in the test on Staphylococcus aureus [4] stood at 4 µg/mL (≈ 2.76 µM).

A word on the MIC: it is the lowest concentration that inhibits growth of the organism. The term MIC90 denotes an inhibitory concentration at the 90% level, which refers to growth in some studies and to a panel of isolates in others. Broadly, the MIC50 is an inhibitory concentration at the 50% level, which refers to growth in some studies and to a panel of isolates in others. The MBC is the smallest concentration meeting the test's criterion for killing. Usually IC50 stands for the concentration that inhibits the measured activity by half.
